pEC50, pIC50: −log10 of the molar value. Read-outs that look alike come from different tables or passages of the source.
Assays:
[1] = target: T1, human CB2 receptors (Homo sapiens, UniProt P34972); test: cAMP assay in HEK-293 cells, hCB2 agonist; assay type: cell-based; details: inhibition of forskolin-stimulated cAMP, HEK-293 cells; for pEC50: read-out: hCB2 EC50 (cAMP ag)
T1 construct: (cDNA clone) CNR0200000
Method: (§1) Functional assays which monitor G-protein coupled receptor or downstream cellular responses can be used to characterize potential CB1 receptor and/or CB2 receptor agonist or antagonist activities. Direct activation (or inhibition of activation) can be monitored using a GTPγS assay (membrane-based assay) or cAMP assay (whole cell-based assay).
cAMP assays were performed in HEK-293 cells stably expressing human CB1 or CB2 receptors. […] Cells suspensions were centrifuged and the cells were washed once with PBS, were centrifuged again, and the cells were re-suspended in HBSS (Hank's Balanced Salt Solution, Cellgro, Cat #21-022-CV) solution containing 10 mM HEPES and 0.1% fatty acid free BSA (Sigma, Cat #A0281). Cell suspensions were prepared at 1,500,000 cells per ml. Stock solutions of test substances (10 mM) in DMSO were diluted to 1 mM using 30% DMSO as diluent. Test substances of solutions (1 mM) were further diluted down to 3× of final assay concentrations in the above HBSS buffer containing 0.1% BSA in the presence of 90 uM forskolin (Sigma Cat#F6886). To perform the assay, 20 uL of cell suspension (1,500,000 cells/mL) were added to each well in 96 well plate and treated with 10 uL test substance solution diluted as described above. Cells and compounds were incubated at 37° C. for 30 minutes. Cells were lysed and cAMP concentration was measured using DiscoveRx −XS+ cAMP assay kit (DiscoveRx Corporation Ltd., Fremont, Calif., USA, Cat #90-0075-03), following the manufacturer's protocol. GraphPad Prism software was used to calculate EC50 values using sigmoidal dose response curve fitting. The maximal amount of cAMP produced by forskolin was defined as 100%.

[2] = target: T2, human CB1 receptors (Homo sapiens, UniProt P21554); test: cAMP assay in HEK-293 cells, hCB1 agonist; assay type: cell-based; details: inhibition of forskolin-stimulated cAMP, HEK-293 cells
T2 construct: (cDNA clone) CNR01L000
From the text: (§2) Stable, HEK-293-derived cell lines that recombinantly express hCBI or hCB2 were established. In brief, the clone hCB1 (CNR IL) or hCB2 (CNR2) was transfected into human embryonic kidney cells (HEK-293) using Lipofectamine 2000 (Gibco, Cat#11668-019) according to the manufacturer's protocol. Transfected clones were isolated by single colony purification and clones were screened for receptor expression using a whole cell, ^3H—CP 55,940 radioligand binding assay. HEK-293 stable cells were maintained in Dulbecco's modified Eagles medium (DMEM) containing 10% fetal bovine serum, 2 mM L-glutamine and 0.5 mg/mL G-418.
as §1
cAMP assays were performed in HEK-293 cells stably expressing human CB1 or CB2 receptors. For cannabinoid receptor functional assays measuring agonist effects on cellular cAMP levels, monolayers of cultured cells were harvested with enzyme-free PBS-based cell dissociation buffer (Gibco, Cat#13151-04). Cells suspensions were centrifuged and the cells were washed once with PBS, were centrifuged again, and the cells were re-suspended in HBSS (Hank's Balanced Salt Solution, Cellgro, Cat #21-022-CV) solution containing 10 mM HEPES and 0.1% fatty acid free BSA (Sigma, Cat #A0281). Cell suspensions were prepared at 1,500,000 cells per ml. Stock solutions of test substances (10 mM) in DMSO were diluted to 1 mM using 30% DMSO as diluent. Test substances of solutions (1 mM) were further diluted down to 3× of final assay concentrations in the above HBSS buffer containing 0.1% BSA in the presence of 90 uM forskolin (Sigma Cat#F6886). To perform the assay, 20 uL of cell suspension (1,500,000 cells/mL) were added to each well in 96 well plate and treated with 10 uL test substance solution diluted as described above. Cells and compounds were incubated at 37° C. for 30 minutes. Cells were lysed and cAMP concentration was measured using DiscoveRx −XS+ cAMP assay kit (DiscoveRx Corporation Ltd., Fremont, Calif., USA, Cat #90-0075-03), following the manufacturer's protocol. GraphPad Prism software was used to calculate EC50 values using sigmoidal dose response curve fitting. The maximal amount of cAMP produced by forskolin was defined as 100%. CB1 or CB2 agonists reduced forskolin-stimulated cAMP signaling. The EC50 value of an agonist compound was defined as the concentration at which 50% of the forskolin-stimulated cAMP synthesis was inhibited.

[3] = target: T3, recombinant human cannabinoid receptor CB1 (Homo sapiens, UniProt P21554); test: Cannabinoid receptor radioligand binding assay, [3H]-CP 55,940 displacement, hCB1; details: displacement of 0.5 nM [3H]-CP 55,940; read-out: hCB1 IC50 (CP displ)
T3 construct: (cDNA clone) CNR01L000
From the text: as §2
(§3) Membranes were isolated from transfected cells as follows. Monolayers of cultured cells were washed twice with phosphate-buffered saline (PBS). Cells were scraped into 20 mM HEPES, pH 7.4, 10 mM EDTA containing complete cocktail protease inhibitors (Roche, Catalog #11 697 498 001) and were homogenized by an electric-powered mechanical probe homogenizer (Omni GLH; probe G7-195S) for 40 seconds at 7000 rpm. Homogenates were centrifuged 10 minutes at 1000×g at 4° C. The supernatant was collected and was centrifuged for 1 hour at 40,000×g. The supernatant was then decanted and the resulting pellet was re-suspended in 20 mM HEPES, pH 7.4, 5 mM MgCl2, 1 mM EDTA, 10% sucrose with complete cocktail protease inhibitors. Protein concentration of membrane suspensions were measured by Bradford Protein Assay using bovine serum albumin as the standard (BioRad catalog #500-0006). Protein concentrations of membrane suspensions were adjusted with the final buffer in the range of 5 to 10 mg/mL and were stored at −80° C. until further use.
Radioligand binding assays were performed by incubating membranes (2-10 μg protein) prepared from HEK-293 cells expressing recombinant human cannabinoid receptors, CB1 or CB2, at room temperature with 0.5 nM cannabinoid receptor agonist, [^3H]-CP 55,940 (Perkin Elmer, catalog #NET1051) in 0.2 mL of binding buffer (50 mM Tris-HCl, pH 7.5, 5 mM MgCl2, 2.5 mM EDTA) and 0.1% fatty acid free bovine serum albumin (Sigma Cat. #A0821) for 90 minutes. A rapid filtration technique using Millipore FB filter plates (Catalog #MADVNOB) and filtration apparatus (Millipore system Catalog MAVM0960R) with vacuum aspiration was used to harvest and rinse labeled membranes (8 times with 0.2 mL of chilled binding buffer). The radioactivity bound to the filters was counted with 0.05 mL of liquid scintillant (UltraGold MV, PerkinElmer catalog #6013159) in a scintillation counter (Perkin Elmer Microbeta instrument). Nonspecific binding was determined in the presence of unlabeled 1 μM CP 55,940 (Sigma Aldrich, catalog #C1112). Binding data were analyzed using GraphPad Prism (GraphPad Software, Inc. San Diego, Calif.).

[4] = target: T4, recombinant human cannabinoid receptor CB2 (Homo sapiens, UniProt P34972); test: Cannabinoid receptor radioligand binding assay, [3H]-CP 55,940 displacement, hCB2
T4 construct: (cDNA clone) CNR0200000
Method: as §3, with “Cells were scraped into 20 mM HEPES, pH 7.4, 10 mM EDTA containing complete cocktail protease inhibitors (Roche, Catalog #11 697 498 001) and were homogenized by an electric-powered mechanical probe homogenizer (Omni GLH; probe G7-195S) for 40 seconds at 7000 rpm.” left out
A rapid filtration technique using Millipore FB filter plates (Catalog #MADVNOB) and filtration apparatus (Millipore system Catalog MAVM0960R) with vacuum aspiration was used to harvest and rinse labeled membranes (8 times with 0.2 mL of chilled binding buffer). […] Binding data were analyzed using GraphPad Prism (GraphPad Software, Inc. San Diego, Calif.).

[5] = target: T5, human CB2 (hCB2) (Homo sapiens, UniProt P34972); test: 35S GTPγS binding assay, hCB2 agonist; assay type: biochemical; details: GTPγS agonist, HEK-293 membranes; read-out: hCB2 EC50 (GTPyS ag)
T5 construct: (cDNA clone) CNR0200000
Method: cDNA expression clones for human CB1 (hCB1, Genbank Accession No. AY225225) and human CB2 (hCB2, Genbank Accession No. AY242132) expressed in vector pcDNA3.1+ were purchased from UMR cDNA Resource Center, Rolla, Mo. (Clone ID CNR01L000 for hCB1; CNR0200000 for hCB2).
as §3, with “Cells were scraped into 20 mM HEPES, pH 7.4, 10 mM EDTA containing complete cocktail protease inhibitors (Roche, Catalog #11 697 498 001) and were homogenized by an electric-powered mechanical probe homogenizer (Omni GLH; probe G7-195S) for 40 seconds at 7000 rpm.” left out
as §1
^35S GTPγS binding assays were performed by incubating recombinant cell membranes prepared above (5 μg) in the presence of scintillation proximity assay beads (SPA beads, Catalog #RPNQ0252 GE Healthcare, Buckinghamshire, England) in GTPγS binding buffer [50 mM HEPES (pH 7.4), 100 mM NaCl, 5 mM MgCl2, 0.001% saponin (Sigma catalog #S4521)] supplemented with 20 uM GDP (Sigma catalog #G7127) in the presence or absence of test compound. The reaction was carried out in 96-well microplates with 0.1 nM [^35S]GTPγS (specific activity=1250 Ci/mmol; Perkin Elmer catalog #NEG030X250UC) in a final volume of 100 uL. After a 90 min room temperature incubation, the reaction was analyzed using a scintillation counter (Perkin Elmer Microbeta instrument). Binding data were analyzed using GraphPad Prism.

T2 sequence (P21554 whole entry): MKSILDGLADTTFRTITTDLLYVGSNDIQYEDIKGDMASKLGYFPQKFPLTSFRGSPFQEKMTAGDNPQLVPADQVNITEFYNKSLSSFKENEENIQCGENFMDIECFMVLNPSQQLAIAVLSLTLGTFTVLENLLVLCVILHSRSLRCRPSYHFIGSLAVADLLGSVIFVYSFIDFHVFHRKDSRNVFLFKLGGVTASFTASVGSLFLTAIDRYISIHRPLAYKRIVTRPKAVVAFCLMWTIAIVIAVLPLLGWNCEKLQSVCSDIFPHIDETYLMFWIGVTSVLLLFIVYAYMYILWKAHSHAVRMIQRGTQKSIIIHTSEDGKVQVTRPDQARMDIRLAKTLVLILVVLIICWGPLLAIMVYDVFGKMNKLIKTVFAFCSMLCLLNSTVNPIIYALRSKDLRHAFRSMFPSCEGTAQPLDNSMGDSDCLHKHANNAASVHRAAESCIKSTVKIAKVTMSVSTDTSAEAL
T1 sequence (P34972 whole entry): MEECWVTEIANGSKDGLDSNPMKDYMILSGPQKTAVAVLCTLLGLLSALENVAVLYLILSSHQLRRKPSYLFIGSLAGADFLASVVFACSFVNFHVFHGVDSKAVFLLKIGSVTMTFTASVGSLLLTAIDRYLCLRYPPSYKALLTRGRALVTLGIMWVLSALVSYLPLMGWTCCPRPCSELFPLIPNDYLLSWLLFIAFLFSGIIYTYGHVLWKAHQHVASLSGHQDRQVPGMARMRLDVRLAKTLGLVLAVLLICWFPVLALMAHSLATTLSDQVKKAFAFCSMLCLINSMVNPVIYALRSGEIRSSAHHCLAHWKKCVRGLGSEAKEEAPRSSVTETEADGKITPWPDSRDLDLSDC
T4 sequence (P34972 whole entry): as above
T5 sequence (P34972 whole entry): as above
T3 sequence (P21554 whole entry): as the sequence (P21554 whole entry) above

Structure (SMILES)	hCB2 EC50 (cAMP ag, nM) [1]	hCB1 EC50 (cAMP ag, nM) [2]	pIC50 [3]	pIC50 ([4]; displacement of 0.5 nM [3H]-CP 55,940, read-out: hCB2 IC50 (CP displ))	pEC50 [5]	pEC50 [1]	pIC50 [4]
COc1ccc(C(=O)c2cc3cc(C)n(CCN4CCNC4=O)c3s2)cc1 [Compound 61]	NS (NS means “Not Significant,” which means less than 30% agonist activity when compared to the positive control.)	NS (NS means “Not Significant,” which means less than 30% agonist activity when compared to the positive control.)					
COc1ccc(C(=O)c2cc3cc(C)n(CCCNC(C)=O)c3s2)cc1 [Compound 63, N-(3-(2-(4-Methoxybenzoyl)-5-methyl-6H-thieno[2,3-b]pyrrol-6-yl)propyl)acetamide]	NS (NS means “Not Significant,” which means less than 30% agonist activity when compared to the positive control.)	NS (NS means “Not Significant,” which means less than 30% agonist activity when compared to the positive control.)					
COc1ccc(C(=O)c2cc3cc(C)n(C(=O)N4CCOCC4)c3s2)cc1 [Compound 66, (2-(4-Methoxybenzoyl)-5-methyl-6H-thieno[2,3-b]pyrrol-6-yl)(morpholino)methanone]		NS (NS means “Not Significant,” which means less than 30% agonist activity when compared to the positive control.)	< 5.00	< 5.00			
COc1ccc(C(=O)c2cc3cc(C)n(CCCNS(=O)(=O)C(F)(F)F)c3s2)cc1 [Compound 75, 1,1,1-Trifluoro-N-(3-(2-(4-methoxybenzoyl)-5-methyl-6H-thieno[2,3-b]pyrrol-6-yl)propyl)methanesulfonamide]	NS (NS means “Not Significant,” which means less than 30% agonist activity when compared to the positive control.)	NS (NS means “Not Significant,” which means less than 30% agonist activity when compared to the positive control.)					
CCOc1ccc(C(=O)c2cc3cc(C)n(CCCNS(C)(=O)=O)c3s2)cc1 [Compound 94, N-(3-(2-(4-Ethoxybenzoyl)-5-methyl-6H-thieno[2,3-b]pyrrol-6-yl)propyl)methanesulfonamide]		NS (NS means “Not Significant,” which means less than 30% agonist activity when compared to the positive control.)			> 7.00	6.00 to 7.00	6.00 to 7.00
CCOc1ccc(C(=O)c2cc3cc(C)n(CCCNS(C)(=O)=O)c3s2)c(F)c1 [Compound 95, N-(3-(2-(4-Ethoxy-2-fluorobenzoyl)-5-methyl-6H-thieno[2,3-b]pyrrol-6-yl)propyl)methanesulfonamide]		NS (NS means “Not Significant,” which means less than 30% agonist activity when compared to the positive control.)			6.00 to 7.00	> 7.00	6.00 to 7.00
Cc1ccc(C(=O)c2cc3cc(C)n(CCCNS(C)(=O)=O)c3s2)c(F)c1 [Compound 97, N-(3-(2-(2-Fluoro-4-methylbenzoyl)-5-methyl-6H-thieno[2,3-b]pyrrol-6-yl)propyl)methanesulfonamide]		NS (NS means “Not Significant,” which means less than 30% agonist activity when compared to the positive control.)			> 7.00	> 7.00	6.00 to 7.00
COc1ncc(C(=O)c2cc3cc(C)n(CCN4CCOCC4)c3s2)cn1 [Compound 118, (2-Methoxypyrimidin-5-yl)(5-methyl-6-(2-morpholinoethyl)-6H-thieno[2,3-b]pyrrol-2-yl)methanone]		NS (NS means “Not Significant,” which means less than 30% agonist activity when compared to the positive control.)			6.00 to 7.00	6.00 to 7.00	

— US20130029970A1 (priority 2009, published 2013)
